Data from patent US9983218B2, “Indole and indoline derivatives and methods of use thereof” (AbbVie Inc., priority 2008, dated 2018).
Where two headings read alike, the source gives them in different places.

Legend:
[1] = system: primary postnatal (P0) cortical cells; experiment: Neurite outgrowth assay (Aβ1-42-induced reduction of neurite outgrowth, high content microscopy); assay type: cell-based, rat; details: for Emax: Rattus norvegicus, read-out: Maximum Effect (of % 300 nM Dimebolin)
Description: In addition to PC12 cells, other cellular model systems may also be used. Rat cortical cells were cultured and prepared for high content microscopy analysis as previously described (Hu, M.; Schurdak, M. E.; et al. High content screen microscopy analysis of Aβ1-42-induced neurite outgrowth reduction in rat primary cortical neurons: Neuroprotective effects of α7 neuronal nicotinic acetylcholine receptor ligands. Brain Res. 2007, 1151, 227-235.). Briefly, cortical cell cultures were plated at density of 5×10^5 cells/mL onto poly-D-lysine coated 96-well plates and maintained in a cell incubator at 37° C. with 5% CO2. Experiments were performed using 6-7 day-old cortical cell cultures by treating with test compounds. In some experiments, the effect of test compounds on reversing Aβ toxicity were also measured (Hu, M.; Schurdak, M. E.; et al. High content screen microscopy analysis of Aβ1-42-induced neurite outgrowth reduction in rat primary cortical neurons: Neuroprotective effects of α7 neuronal nicotinic acetylcholine receptor ligands. Brain Res. 2007, 1151, 227-235.). For assessment of neuroprotective effects, cells were first pretreated with test compounds for about 5 hours. Medium was then replaced with the medium containing freshly prepared about 5 μM Aβ1-42 peptide in the absence or presence of the test compounds for 3 days. The untreated group contained the same percentage of vehicle (DMSO) as in the treatment groups. Cells were fixed with approximately 4% paraformaldehyde containing 0.5% Hoechst 33342 for about 15 minutes, followed by three washes using PBS (pH 7.4) and blocked with 10% donkey serum in PBS for 1 hour at room temperature. The cells were then incubated overnight at about 4° C. with mouse anti-tubulin monoclonal antibody (1:100) for staining neurons and rabbit anti-GFAP (1:1000) for staining glia. In the next day, cells were incubated with FITC-labeled anti-mouse and TRITC-labeled anti-rabbit antibodies (1:1000) for about 1 hour at room temperature. After fixing and staining the cells, nuclei (360/400 nm excitation and 465/300 nm emission filters), neuron (475/350 nm excitation and 535/400 nm emission filters) and glial cell (535 nm excitation and 610 nm emission filters) images were collected using the ImageExpress Micro automatic fluorescent microscopy system (Molecular Devices, Sunnyvale, Calif.) employing a Nikon 10× Plan Fluor objective and Cool Snap HQ CCD camera. The Neurite Outgrowth module in the MetaMorph Imaging software was used to automatically count total cell number, number of neuron cells, and the extent of neurite outgrowth.
In the graph of FIG. 2, 100% response was the response observed for untreated cells. Exposure to Aβ1-42 produced a decrease in neurite outgrowth. Treatment of cells with compounds prior to and concomitantly with Aβ1-42 gave a neuroprotective effect with neurite outgrowth maintained or enhanced relative to untreated cells.

[2] = system: SK-N-SH human neuroblastoma cells; experiment: Serum deprivation/JC-1 mitochondrial membrane potential (MMP) assay; assay type: cell-based; details: for Emax: SK-N-SH, read-out: JC-1 max %; for EC50: SK-N-SH cells, serum deprivation ~18 hours, JC-1 ratio normalized to peak value for 10 μM dimebolin, single curve fit to mean data of n=2-3, read-out: EC50
Summary of the method: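 Cells were serum-deprived ~18 h in MEM with or without compound (DMSO ≤1%), then stained with JC-1 for 35 min at 37° C. The red/green fluorescence ratio (560/595 vs 485/535 nm) was normalized to the peak response of 10 μM dimebolin. EC50 came from one curve fit to mean data (n=2-3, duplicates).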

[3] = maximum response relative to 300 nM dimebolin, at the concentration given
[4] = Homo sapiens, percent maximal intensity in JC-1 ratio normalized to 10 μM dimebolin

SMILES | Emax [1, 3] [%] | Emax [2, 4] [%] | EC50 ([2]; Homo sapiens) [µM] | Maximum Effect (of % 300 nM Dimebolin) [1, 3] [%] | Concentration (nM) at which the maximum effect was noted ([1]; test compound concentration giving the maximum response) [nM] | EC50 [2] [µM] | JC-1 max % ([2]; percent maximal intensity in JC-1 ratio normalized to 10 μM dimebolin) [%]
Cc1ccc2c(c1)[C@H]1CN3CCC(CC3)[C@H]1N2CCc1ccc(C)nc1 (relative stereo) [Example 158, (5aR*,10bS*)-9-methyl-6-[2-(6-methylpyridin-3-yl)ethyl]-3,4,5,5a,6,10b-hexahydro-1H-2,5-ethanoazepino[4,3-b]indole] | 110 |  |  |  |  |  | 
Cc1ccc2c(c1)c1c(n2CCc2ccc(C)nc2)C[C@H]2CC[C@@H]1N2 (single isomer, unassigned) [Example 6] | 124 | 163 | 5.79 |  |  |  | 
Cc1ccc2c(c1)c1c(n2CCc2cccc(C(F)(F)F)c2)C[C@H]2CCC[C@@H]1N2 (single isomer, unassigned) [Example 133] | 108 |  |  |  |  |  | 
c1cnc2ccc(-n3c4c(c5ccccc53)[C@H]3CC[C@@H](C4)N3)cc2c1 (single isomer, unassigned) [Example 278] | 96 | 189 | 2.71 |  |  |  | 
c1ccc2c(c1)c1c(n2-c2ccc3ccncc3c2)C[C@H]2CC[C@@H]1N2 (single isomer, unassigned) [Example 279] | 108 | 209 | 5.49 |  |  |  | 
c1ccc2c(c1)c1c(n2-c2ccc3ccncc3c2)C[C@@H]2CC[C@H]1N2 (single isomer, unassigned) [Example 280] | 107 | 201 | 5.25 |  |  |  | 
Cc1ccc2c(c1)c1c(n2CCc2cnc(C)nc2)C[C@H]2CC[C@@H]1N2C [Example 31, (7R,10S)-2,11-dimethyl-5-[2-(2-methylpyrimidin-5-yl)ethyl]-5,6,7,8,9,10-hexahydro-7,10-epiminocyclohepta[b]indole] | 96 | 97 | 6.05 |  |  |  | 
Cc1ccc2c(c1)c1c(n2CCc2cccc(C(F)(F)F)c2)CC2CCC1N2C (centres unmarked) [Example 50, 2,11-dimethyl-5-{2-[3-(trifluoromethyl)phenyl]ethyl}-5,6,7,8,9,10-hexahydro-7,10-epiminocyclohepta[b]indole] | 101 | 175 | 6.45 |  |  |  | 
Cc1ccc2c(c1)c1c(n2CCc2cccc(C(F)(F)F)c2)C[C@@H]2CCC[C@H]1N2 [Example 135, (7S,11R)-2-methyl-5-{2-[3-(trifluoromethyl)phenyl]ethyl}-6,7,8,9,10,11-hexahydro-5H-7,11-epiminocycloocta[b]indole] | 126 |  |  |  |  |  | 
Fc1ccc(Cn2c3c(c4cc(F)ccc42)CN2CCC3CC2)cc1 [Example 165, 9-fluoro-6-(4-fluorobenzyl)-3,4,5,6-tetrahydro-1H-2,5-ethanoazepino[4,3-b]indole] | 104 |  |  |  |  |  | 
Fc1ccc2c(c1)c1c(n2Cc2ccc(Br)cc2)C2CCN(CC2)C1 [Example 167, 6-(4-bromobenzyl)-9-fluoro-3,4,5,6-tetrahydro-1H-2,5-ethanoazepino[4,3-b]indole] | 92 | 149 | 4.71 |  |  |  | 
Fc1ccc2c(c1)c1c(n2-c2ccc3ncccc3c2)C2CCN(CC2)C1 [Example 228, 9-fluoro-6-quinolin-6-yl-3,4,5,6-tetrahydro-1H-2,5-ethanoazepino[4,3-b]indole] | 141 | 263 | 1.73 |  |  |  | 
Cc1ccc2cc(-n3c4c(c5cc(F)ccc53)CN3CCC4CC3)ccc2n1 [Example 229, 9-fluoro-6-(2-methylquinolin-6-yl)-3,4,5,6-tetrahydro-1H-2,5-ethanoazepino[4,3-b]indole] | 165 | 282 | 0.7 |  |  |  | 
O=c1cccnn1-c1ccc(Cn2c3c(c4cc(F)ccc42)CN2CCC3CC2)cn1 [Example 248, 2-{5-[(9-fluoro-1,3,4,5-tetrahydro-6H-2,5-ethanoazepino[4,3-b]indol-6-yl)methyl]pyridin-2-yl}pyridazin-3(2H)-one] | 109 | 110 | 5.24 |  |  |  | 
O=c1ccnc2ccc(-n3c4c(c5cc(F)ccc53)CN3CCC4CC3)cn12 [Example 261, 7-(9-fluoro-1,3,4,5-tetrahydro-6H-2,5-ethanoazepino[4,3-b]indol-6-yl)-4H-pyrido[1,2-a]pyrimidin-4-one] | 104 | 160 | 5.72 |  |  |  | 
O=c1cccnn1-c1ccc(-n2c3c(c4cc(F)ccc42)CN2CCC3CC2)nc1 [Example 262, 2-[6-(9-fluoro-1,3,4,5-tetrahydro-6H-2,5-ethanoazepino[4,3-b]indol-6-yl)pyridin-3-yl]pyridazin-3(2H)-one] | 99 | 182 | 8.71 |  |  |  | 
Fc1ccc2c(c1)c1c(n2-c2cccnc2)C2CCN(CC2)C1 [Example 264, 9-fluoro-6-(pyridin-3-yl)-3,4,5,6-tetrahydro-1H-2,5-ethanoazepino[4,3-b]indole] | 110 | 107 | 7.8 |  |  |  | 
O=c1cnc2ccc(-n3c4c(c5ccccc53)CN3CCC4CC3)cc2[nH]1 [Example 274, 7-(1,3,4,5-tetrahydro-6H-2,5-ethanoazepino[4,3-b]indol-6-yl)quinoxalin-2(1H)-one] | 111 | 235 | 2.27 |  |  |  | 
O=c1ccnc2ccc(-n3c4c(c5ccccc53)CN3CCC4CC3)cn12 [Example 277, 7-(1,3,4,5-tetrahydro-6H-2,5-ethanoazepino[4,3-b]indol-6-yl)-4H-pyrido[1,2-a]pyrimidin-4-one] | 91 | 190 | 2.4 |  |  |  | 
c1cnc2ccc(-n3c4c(c5ccccc53)[C@@H]3CC[C@H](C4)N3)cc2c1 [Example 282, (7R,10S)-5-(quinolin-6-yl)-5,6,7,8,9,1-hexahydro-7,10-epiminocyclohepta[b]indole] |  |  |  | 115 | 30 | 3.21 | 228
